Test [1] concerns the target Tyrosine-protein kinase ABL1 (Homo sapiens, UniProt P00519).
Test [2] deals with T1, Beta-adrenergic receptor kinase 1 (Homo sapiens, UniProt P25098).
T1 sequence (P25098 whole entry): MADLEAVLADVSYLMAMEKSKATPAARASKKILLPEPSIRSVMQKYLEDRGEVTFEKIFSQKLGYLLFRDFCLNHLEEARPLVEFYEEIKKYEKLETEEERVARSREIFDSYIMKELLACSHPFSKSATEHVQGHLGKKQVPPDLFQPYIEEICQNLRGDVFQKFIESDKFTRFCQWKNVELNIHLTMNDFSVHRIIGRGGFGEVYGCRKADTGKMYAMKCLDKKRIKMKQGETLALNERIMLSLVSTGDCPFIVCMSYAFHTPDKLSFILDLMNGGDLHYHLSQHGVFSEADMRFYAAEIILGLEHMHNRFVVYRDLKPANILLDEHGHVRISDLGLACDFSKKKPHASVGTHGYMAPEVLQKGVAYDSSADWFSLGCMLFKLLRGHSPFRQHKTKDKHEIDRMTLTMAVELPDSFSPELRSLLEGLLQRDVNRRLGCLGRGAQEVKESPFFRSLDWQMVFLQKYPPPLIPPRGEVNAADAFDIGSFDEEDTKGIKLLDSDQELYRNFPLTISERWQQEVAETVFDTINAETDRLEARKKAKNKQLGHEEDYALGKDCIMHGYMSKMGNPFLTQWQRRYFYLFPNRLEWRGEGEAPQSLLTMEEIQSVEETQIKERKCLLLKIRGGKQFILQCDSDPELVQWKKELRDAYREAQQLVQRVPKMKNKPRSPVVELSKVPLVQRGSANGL

The target of test [3] is Serine/threonine-protein kinase ATR (Homo sapiens, UniProt Q13535).
The target of the next test is T2, Heme oxygenase 2 (Homo sapiens, UniProt P30519).
T2 sequence (P30519 whole entry): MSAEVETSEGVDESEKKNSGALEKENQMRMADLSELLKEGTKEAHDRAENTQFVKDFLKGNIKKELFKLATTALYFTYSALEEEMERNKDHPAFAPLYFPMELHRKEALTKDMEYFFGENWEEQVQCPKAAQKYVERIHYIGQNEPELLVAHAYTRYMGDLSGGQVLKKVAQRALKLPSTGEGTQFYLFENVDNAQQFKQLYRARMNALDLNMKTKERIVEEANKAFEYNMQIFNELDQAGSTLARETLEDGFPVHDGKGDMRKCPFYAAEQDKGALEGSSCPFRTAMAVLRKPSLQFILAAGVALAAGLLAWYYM

Test [4] addresses MAP/microtubule affinity-regulating kinase 3 (Homo sapiens, UniProt P27448).
In test [5] the target is T3, Phosphatidylinositol 5-phosphate 4-kinase type-2 alpha (Homo sapiens, UniProt P48426).
T3 sequence (P48426 whole entry): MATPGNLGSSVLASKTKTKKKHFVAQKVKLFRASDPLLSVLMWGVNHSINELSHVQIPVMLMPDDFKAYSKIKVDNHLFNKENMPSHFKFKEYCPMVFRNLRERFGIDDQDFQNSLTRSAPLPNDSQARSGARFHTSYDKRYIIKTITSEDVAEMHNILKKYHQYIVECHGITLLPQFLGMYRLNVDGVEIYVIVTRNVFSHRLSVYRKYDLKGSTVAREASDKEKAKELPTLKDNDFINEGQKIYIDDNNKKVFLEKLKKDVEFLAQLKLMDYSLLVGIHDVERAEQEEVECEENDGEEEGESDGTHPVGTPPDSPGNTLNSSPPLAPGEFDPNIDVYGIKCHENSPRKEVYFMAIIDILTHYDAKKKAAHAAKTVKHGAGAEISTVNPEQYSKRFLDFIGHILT

For test [6], the target named is T4, Serine/threonine-protein kinase D3 (Homo sapiens, UniProt O94806).
T4 sequence (O94806 whole entry): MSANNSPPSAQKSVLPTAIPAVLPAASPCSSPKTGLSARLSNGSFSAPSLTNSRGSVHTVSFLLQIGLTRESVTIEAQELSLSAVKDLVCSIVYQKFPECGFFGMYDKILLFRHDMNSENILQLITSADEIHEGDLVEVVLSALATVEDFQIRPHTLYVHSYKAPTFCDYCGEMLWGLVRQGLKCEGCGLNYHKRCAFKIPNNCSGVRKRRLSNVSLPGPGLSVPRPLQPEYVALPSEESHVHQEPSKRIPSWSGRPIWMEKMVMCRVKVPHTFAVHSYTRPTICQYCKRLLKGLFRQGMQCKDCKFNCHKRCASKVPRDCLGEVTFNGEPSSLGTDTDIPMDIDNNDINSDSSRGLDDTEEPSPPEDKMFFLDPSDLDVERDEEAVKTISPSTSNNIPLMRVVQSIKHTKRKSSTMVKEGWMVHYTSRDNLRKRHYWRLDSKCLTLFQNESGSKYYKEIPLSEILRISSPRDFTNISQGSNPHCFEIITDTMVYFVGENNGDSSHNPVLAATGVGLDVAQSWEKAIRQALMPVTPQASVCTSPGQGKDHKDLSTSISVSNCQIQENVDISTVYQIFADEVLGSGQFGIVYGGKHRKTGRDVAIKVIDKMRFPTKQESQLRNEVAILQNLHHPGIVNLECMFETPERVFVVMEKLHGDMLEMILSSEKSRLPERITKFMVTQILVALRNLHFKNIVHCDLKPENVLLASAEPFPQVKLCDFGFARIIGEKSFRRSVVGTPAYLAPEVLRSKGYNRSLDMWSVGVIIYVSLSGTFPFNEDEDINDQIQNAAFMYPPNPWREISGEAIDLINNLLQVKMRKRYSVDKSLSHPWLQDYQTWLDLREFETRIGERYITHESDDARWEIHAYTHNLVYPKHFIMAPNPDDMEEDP

Test [7] has as its target Ribosomal protein S6 kinase alpha-1 (Homo sapiens, UniProt Q15418).
In test [8] the target is Serine/threonine-protein kinase MRCK gamma (Homo sapiens, UniProt Q6DT37).
The target of test [9] is Protein kinase C theta type (Homo sapiens, UniProt Q04759).

SMILES strings stand for the structures. Counter-ions that a name gives are not always drawn. Activity calls are given as the source filed them.
Note: in the data inactive means no Kd found up to 30 µM.

Serine/threonine-protein kinase ATR, sequence (Q13535 whole entry): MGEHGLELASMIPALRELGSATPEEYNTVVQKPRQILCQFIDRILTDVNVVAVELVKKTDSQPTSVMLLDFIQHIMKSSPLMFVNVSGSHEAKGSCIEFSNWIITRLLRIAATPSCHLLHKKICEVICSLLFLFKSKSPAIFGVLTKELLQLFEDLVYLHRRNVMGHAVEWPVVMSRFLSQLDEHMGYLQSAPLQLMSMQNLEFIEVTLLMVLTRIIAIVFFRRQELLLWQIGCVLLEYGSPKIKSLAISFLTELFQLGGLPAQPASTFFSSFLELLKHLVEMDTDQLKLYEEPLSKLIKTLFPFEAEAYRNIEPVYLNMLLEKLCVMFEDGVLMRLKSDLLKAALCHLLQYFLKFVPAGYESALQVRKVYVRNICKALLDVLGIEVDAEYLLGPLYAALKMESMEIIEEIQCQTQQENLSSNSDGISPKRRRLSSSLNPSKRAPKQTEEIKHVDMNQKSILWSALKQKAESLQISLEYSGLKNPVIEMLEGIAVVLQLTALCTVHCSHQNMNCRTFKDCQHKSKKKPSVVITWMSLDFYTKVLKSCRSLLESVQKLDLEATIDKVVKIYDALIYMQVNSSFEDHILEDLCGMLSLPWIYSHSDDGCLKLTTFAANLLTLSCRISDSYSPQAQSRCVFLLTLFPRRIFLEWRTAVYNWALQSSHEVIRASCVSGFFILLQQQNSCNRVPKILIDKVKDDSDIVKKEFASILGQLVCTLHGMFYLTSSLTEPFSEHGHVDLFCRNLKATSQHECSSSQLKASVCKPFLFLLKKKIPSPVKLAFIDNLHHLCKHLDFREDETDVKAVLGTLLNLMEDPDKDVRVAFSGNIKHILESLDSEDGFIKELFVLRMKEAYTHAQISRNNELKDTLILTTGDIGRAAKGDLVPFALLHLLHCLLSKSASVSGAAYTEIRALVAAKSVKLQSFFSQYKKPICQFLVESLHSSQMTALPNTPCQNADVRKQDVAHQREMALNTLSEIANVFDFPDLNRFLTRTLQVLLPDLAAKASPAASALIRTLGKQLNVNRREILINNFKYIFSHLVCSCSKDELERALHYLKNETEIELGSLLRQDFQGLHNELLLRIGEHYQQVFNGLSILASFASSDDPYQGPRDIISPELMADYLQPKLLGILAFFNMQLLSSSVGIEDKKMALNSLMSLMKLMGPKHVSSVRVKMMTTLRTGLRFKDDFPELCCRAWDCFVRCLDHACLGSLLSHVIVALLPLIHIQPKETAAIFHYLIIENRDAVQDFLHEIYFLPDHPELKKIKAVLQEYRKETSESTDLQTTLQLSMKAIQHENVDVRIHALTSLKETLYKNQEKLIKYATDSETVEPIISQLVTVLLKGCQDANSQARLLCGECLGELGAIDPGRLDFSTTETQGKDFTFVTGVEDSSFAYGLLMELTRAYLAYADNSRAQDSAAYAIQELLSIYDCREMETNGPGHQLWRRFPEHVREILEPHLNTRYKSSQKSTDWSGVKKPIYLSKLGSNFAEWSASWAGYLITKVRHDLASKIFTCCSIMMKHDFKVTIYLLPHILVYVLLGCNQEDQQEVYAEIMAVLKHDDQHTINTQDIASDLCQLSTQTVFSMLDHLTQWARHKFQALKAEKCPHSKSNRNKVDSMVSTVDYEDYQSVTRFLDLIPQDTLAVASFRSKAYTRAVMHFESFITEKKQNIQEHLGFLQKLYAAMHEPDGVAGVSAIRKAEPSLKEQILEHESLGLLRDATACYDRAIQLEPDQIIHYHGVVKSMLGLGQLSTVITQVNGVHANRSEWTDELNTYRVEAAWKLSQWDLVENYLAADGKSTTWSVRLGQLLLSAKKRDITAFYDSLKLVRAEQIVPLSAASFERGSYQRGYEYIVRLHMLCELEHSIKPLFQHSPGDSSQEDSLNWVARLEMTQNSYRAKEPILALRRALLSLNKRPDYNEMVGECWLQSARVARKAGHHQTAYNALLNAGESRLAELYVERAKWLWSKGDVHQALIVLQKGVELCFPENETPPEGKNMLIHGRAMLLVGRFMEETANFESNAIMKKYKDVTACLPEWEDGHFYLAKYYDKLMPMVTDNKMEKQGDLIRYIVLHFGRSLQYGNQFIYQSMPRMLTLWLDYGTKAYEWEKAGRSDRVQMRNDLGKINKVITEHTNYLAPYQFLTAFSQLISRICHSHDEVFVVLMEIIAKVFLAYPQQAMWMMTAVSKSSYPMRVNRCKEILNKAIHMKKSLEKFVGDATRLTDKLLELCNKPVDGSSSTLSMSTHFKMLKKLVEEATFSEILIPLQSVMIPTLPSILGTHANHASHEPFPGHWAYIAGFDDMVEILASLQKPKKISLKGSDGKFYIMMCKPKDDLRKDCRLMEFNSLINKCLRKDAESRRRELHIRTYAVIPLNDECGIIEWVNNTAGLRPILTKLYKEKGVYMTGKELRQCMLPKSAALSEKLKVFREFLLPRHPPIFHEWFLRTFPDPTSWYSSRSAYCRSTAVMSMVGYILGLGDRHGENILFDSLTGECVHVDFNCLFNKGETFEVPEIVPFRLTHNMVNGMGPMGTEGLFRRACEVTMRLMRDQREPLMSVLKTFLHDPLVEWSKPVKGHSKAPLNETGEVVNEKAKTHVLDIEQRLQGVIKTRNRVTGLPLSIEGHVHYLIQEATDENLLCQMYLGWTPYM
Protein kinase C theta type, sequence (Q04759 whole entry): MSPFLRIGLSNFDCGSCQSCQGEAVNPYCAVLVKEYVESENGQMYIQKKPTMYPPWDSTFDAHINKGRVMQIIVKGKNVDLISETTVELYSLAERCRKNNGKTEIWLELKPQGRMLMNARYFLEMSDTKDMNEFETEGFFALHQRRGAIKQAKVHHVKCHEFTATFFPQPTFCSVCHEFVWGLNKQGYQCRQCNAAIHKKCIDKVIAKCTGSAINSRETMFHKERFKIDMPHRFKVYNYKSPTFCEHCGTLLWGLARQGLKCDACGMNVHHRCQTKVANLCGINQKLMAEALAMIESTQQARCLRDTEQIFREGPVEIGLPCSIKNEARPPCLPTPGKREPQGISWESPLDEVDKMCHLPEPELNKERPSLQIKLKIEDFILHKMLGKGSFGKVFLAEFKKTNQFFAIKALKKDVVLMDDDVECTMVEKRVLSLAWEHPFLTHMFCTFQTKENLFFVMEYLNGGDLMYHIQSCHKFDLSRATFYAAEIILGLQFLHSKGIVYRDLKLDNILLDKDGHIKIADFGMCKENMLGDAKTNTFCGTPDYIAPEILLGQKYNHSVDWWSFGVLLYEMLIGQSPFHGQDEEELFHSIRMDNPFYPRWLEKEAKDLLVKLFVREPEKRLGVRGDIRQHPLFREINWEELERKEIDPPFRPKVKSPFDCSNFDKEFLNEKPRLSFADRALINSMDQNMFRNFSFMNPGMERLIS
Ribosomal protein S6 kinase alpha-1, sequence (Q15418 whole entry): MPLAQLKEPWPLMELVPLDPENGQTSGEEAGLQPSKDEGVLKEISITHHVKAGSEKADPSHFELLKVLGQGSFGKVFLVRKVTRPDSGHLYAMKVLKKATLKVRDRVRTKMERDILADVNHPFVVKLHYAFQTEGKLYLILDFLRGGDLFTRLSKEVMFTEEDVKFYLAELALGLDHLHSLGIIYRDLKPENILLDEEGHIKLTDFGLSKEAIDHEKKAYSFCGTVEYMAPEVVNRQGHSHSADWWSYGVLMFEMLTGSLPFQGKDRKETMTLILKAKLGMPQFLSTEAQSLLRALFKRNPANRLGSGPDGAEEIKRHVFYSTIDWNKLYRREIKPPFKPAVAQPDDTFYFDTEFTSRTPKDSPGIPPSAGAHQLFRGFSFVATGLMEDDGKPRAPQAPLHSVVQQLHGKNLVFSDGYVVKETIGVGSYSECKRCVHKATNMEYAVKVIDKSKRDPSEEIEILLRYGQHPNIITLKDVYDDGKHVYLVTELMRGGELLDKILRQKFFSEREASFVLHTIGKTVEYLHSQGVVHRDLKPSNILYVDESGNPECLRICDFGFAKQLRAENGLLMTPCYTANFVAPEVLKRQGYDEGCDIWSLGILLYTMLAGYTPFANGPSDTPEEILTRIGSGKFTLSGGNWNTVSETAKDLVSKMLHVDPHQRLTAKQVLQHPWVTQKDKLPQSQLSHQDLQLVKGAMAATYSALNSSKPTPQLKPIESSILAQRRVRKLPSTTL
MAP/microtubule affinity-regulating kinase 3, sequence (P27448 whole entry): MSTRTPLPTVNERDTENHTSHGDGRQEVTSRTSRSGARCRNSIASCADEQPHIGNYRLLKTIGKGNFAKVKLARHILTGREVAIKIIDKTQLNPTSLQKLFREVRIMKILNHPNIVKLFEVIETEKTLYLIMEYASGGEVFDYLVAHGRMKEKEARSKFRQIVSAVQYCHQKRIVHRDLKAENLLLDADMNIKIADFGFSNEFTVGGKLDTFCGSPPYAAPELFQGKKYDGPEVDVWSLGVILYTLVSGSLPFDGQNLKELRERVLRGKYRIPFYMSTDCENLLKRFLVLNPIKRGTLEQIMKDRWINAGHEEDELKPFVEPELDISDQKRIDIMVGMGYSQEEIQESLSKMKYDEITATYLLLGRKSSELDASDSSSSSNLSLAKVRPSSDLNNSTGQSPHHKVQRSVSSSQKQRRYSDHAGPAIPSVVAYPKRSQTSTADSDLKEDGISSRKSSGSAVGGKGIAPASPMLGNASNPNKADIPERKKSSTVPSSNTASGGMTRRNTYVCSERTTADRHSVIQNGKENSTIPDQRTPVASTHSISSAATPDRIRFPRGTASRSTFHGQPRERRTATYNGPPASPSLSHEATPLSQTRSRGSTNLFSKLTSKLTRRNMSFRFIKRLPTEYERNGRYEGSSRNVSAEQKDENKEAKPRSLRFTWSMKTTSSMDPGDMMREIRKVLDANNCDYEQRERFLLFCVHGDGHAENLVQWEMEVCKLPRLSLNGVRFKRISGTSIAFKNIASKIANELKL

As usually defined, the Kd is a measure of binding affinity in units of concentration. Take `CCNC(=O)C#Cc1ccc2c(c1)NC(=O)/C2=C(\Nc1ccc(CN(C)C)cc1)c1ccccc1`: the Kd in [1] was 1.59 µM (active); in test [2], > 30 µM (inactive); in test [3] it was > 30 µM (inactive); at Heme oxygenase 2 it was > 30 µM (inactive); in test [4], > 30 µM (inactive); in test [5], > 30 µM (inactive). Besides, the Kd in test [6] was > 30 µM (inactive); in [7], 0.799 µM (active).

In the case of `COCc1c(-c2ccc(NC(=O)Nc3cc(C(F)(F)F)ccc3F)c(F)c2)c2c(N)ncnn2c1CN1CCOCC1`, the Kd (in test [1]; in test [2]; in test [3]; on Heme oxygenase 2; in [4]; in test [5]) was > 30 µM (inactive) throughout. In addition, the figures for the Kd in test [6] and in [7] were > 30 µM (inactive) and 4.13 µM (active), respectively.

For the compound `CCS(=O)(=O)N1CCN(c2ccc(Nc3ncc(C(N)=O)c(NC4CC4)n3)cc2)CC1` [Cerdulatinib Hydrochloride], the Kd (in test [1]; in test [2]; in [3]; in [8]; on Heme oxygenase 2; in [5]) was > 30 µM (inactive) in each case. Further, the Kd is > 30 µM (inactive) in [9], 1.06 µM (active) in test [6] and > 30 µM (inactive) in [7].

Turning to `Cn1cc(C2=C(c3cn(C4CCN(Cc5ccccn5)CC4)c4ccccc34)C(=O)NC2=O)c2ccccc21` [ENZASTAURIN], the Kd (in test [2]; in test [3]; at Heme oxygenase 2; in test [5]) was > 30 µM (inactive) throughout.

In the case of `C[C@@H](Oc1cc(-n2cnc3ccc(CN4CCN(C)CC4)cc32)sc1C(N)=O)c1ccccc1C(F)(F)F` [GSK-461364], the Kd (in test [2]; in test [3]; at Heme oxygenase 2; in test [5]) was > 30 µM (inactive) throughout.

`CNC(=O)c1nn(C)c2c1C(C)(C)Cc1cnc(Nc3ccc(N4CCN(C)CC4)cc3)nc1-2` [MILCICLIB]: the Kd in test [2] is > 30 µM (inactive); in test [3], > 30 µM (inactive); in test [8], > 30 µM (inactive); on Heme oxygenase 2, > 30 µM (inactive); in test [4], 3.44 µM (active); in [5], > 30 µM (inactive). In addition, the Kd was > 30 µM (inactive) in test [9], 0.135 µM (active) in test [6] and > 30 µM (inactive) in test [7].

Turning to `NC(=O)c1c(OCc2c(F)cc(Br)cc2F)nsc1NC(=O)NCCCCN1CCCC1` [OSI-632], the Kd (in test [2]; in [3]; in [8]; at Heme oxygenase 2; in test [5]) was > 30 µM (inactive) each time.

For the compound `O=C(NOCCO)c1cc(CN2OCCCC2=O)c(F)c(F)c1Nc1ccc(I)cc1F` [RO-4987655], the Kd (in test [3]; at Heme oxygenase 2; in test [5]) was > 30 µM (inactive) throughout.

With `CN1CCN(CCOc2cc(OC3CCOCC3)c3c(Nc4c(Cl)ccc5c4OCO5)ncnc3c2)CC1` [SARACATINIB], the Kd (in test [2]; in [3]; in test [8]; on Heme oxygenase 2; in test [4]; in test [5]) was > 30 µM (inactive) in each case. The Kd in test [9], in test [6] and in test [7] was > 30 µM (inactive) in each case.

`CO[C@H]1C[C@@H]2CC[C@@H](C)[C@@](O)(O2)C(=O)C(=O)N2CCCC[C@H]2C(=O)O[C@H]([C@H](C)C[C@@H]2CC[C@@H](O)[C@H](OC)C2)CC(=O)[C@H](C)/C=C(\C)[C@@H](O)[C@@H](OC)C(=O)[C@H](C)C[C@H](C)/C=C/C=C/C=C/1C` [SIROLIMUS]: the Kd (in test [1]; in test [2]; in test [8]; at Heme oxygenase 2; in [4]; in [5]) was > 30 µM (inactive) throughout. Besides, the Kd in [9], in test [6] and in test [7] was > 30 µM (inactive) in each case.

In the case of `O=C(Cc1ccc(-c2ccc(OCCN3CCOCC3)cc2)cn1)NCc1ccccc1` [TIRBANIBULIN], the Kd (in test [1]; in test [2]; in test [8]; on Heme oxygenase 2; in test [4]; in [5]) was > 30 µM (inactive) each time. The Kd in test [9], in test [6] and in test [7] was > 30 µM (inactive) each time.

On to `Cc1cc(Nc2ncnc3ccc(NC4=NC(C)(C)CO4)cc23)ccc1Oc1ccn2ncnc2c1` [TUCATINIB], for which the Kd (in test [1]; in [2]; in [8]; at Heme oxygenase 2; in test [4]; in [5]) was > 30 µM (inactive) each time. Also, the Kd in test [9], in test [6] and in test [7] was > 30 µM (inactive) each time.

Regarding `CC(C)c1cc(CNc2nc(Nc3cc(C4CC4)[nH]n3)cc(N3CCN(C)CC3)n2)on1` [XL-228], the Kd in [1] was 0.075 µM (active); in test [2], > 30 µM (inactive); in test [3], > 30 µM (inactive); at Heme oxygenase 2, > 30 µM (inactive); in [4], 0.133 µM (active); in test [9], > 30 µM (inactive). The Kd is 1.86 µM (active) in test [6] and > 30 µM (inactive) in [7].

Take `C[C@@H](N)c1ccc(C(=O)Nc2ccnc3[nH]ccc23)cc1` [Y-39983]: the Kd in test [1] was > 30 µM (inactive); in test [2] it was > 30 µM (inactive); in test [3], > 30 µM (inactive); at Heme oxygenase 2, > 30 µM (inactive); in test [4], 38.5 µM (active); in [5], > 30 µM (inactive). For the same compound, the Kd in [9] is 0.09 µM (active); in [7], > 30 µM (inactive).

Source of the values: ChEMBL document CHEMBL3991601, “The target landscape of clinical kinase drugs” (Science, 2017).
